From patent US6537978B1, “Oral administration of effective amounts of forms of hyaluronic acid” (Jagotec AG, priority 1996, dated 2003)

Assays:
[1] = Human serum hyaluronan levels and molecular weight after oral administration; assay type: in vivo; settings: oral 30.0 mg/kg, m.w. less than 750,000 daltons (Protein Standard), FIG. 10
Source text: FIGS. 11A, 11B and 11C illustrate the release of amounts of hyaluronic acid into the blood stream of individuals (human) who have taken hyaluronan orally and the molecular weights of the serum hyaluronan released by the bodily processes. The molecular weights of the hyaluronan released into the human blood serum appear to include amounts at peaks between 400,000 daltons and 600,000 daltons such as less than 500,000 daltons, between about 200,000 and about 300,000 such as greater than 200,000 daltons, and between about 30,000 daltons and about 80,000 daltons (determined using the Dextran Standard).
FIG. 10 illustrates the mean serum hyaluronan concentration after giving individual humans oral dosages containing 30.0 mg/kg of hyaluronan (molecular weight less than 750,000 daltons determined by the Protein Standard).

[2] = Rat serum hyaluronic acid levels and molecular weight after oral administration (gel filtration, carbazole and aggrecan ELISA-like assay); assay type: in vivo; settings: for serum/blood HA amount after oral compared with subcutaneous administration: oral 30 mg/kg vs subcutaneous 30-100 mg/kg
Method: Elisa-Like Assay for Hyaluronic Acid in Column Fractions from Serum Obtained after the Oral Administration of Sodium Hyaluronate at 30 mg/kg (400.000)Daltons Mean Average Molecular Weight Distribution (Protein Standard), 2% by Weight in Sterile Water)
using 2 mL fraction volumes.
B.) Elisa-Like Assay for Hyaluronic Acid
Prior to assay the column fractions were prepared in the following manner:
1900 μ.L of each 2 mL fraction was frozen at—80° C. and then taken to dryness on a speed vac concentrator at room temperature.
fractions were reconstituted with 125 μ.L of ddH2O and then assayed.
The sharp drop in serum hyaluronic acid levels seen at 3 and 6 hours post-feeding appears to be a real event since it was reproduced in serum analyzed from two different animals for each time point. The overall trend appears to be satisfactory. It is indicative of an initial absorption of sodium hyaluronate in the stomach (1 hour post-feeding of HA) followed by a rapid clearance of this initial “pulse” from the blood. The second “pulse” of increased serum hyaluronic acid (9-12 hours post-feeding of HA) appears then to represent a second phase of absorption, as the administered sodium hyualuronate moves into the small and large intestine. The majority of serum hyaluronic acid at 1 hour and 9 hours post-feeding of HA (FIG. 3 (A), (D)) elutes in the region of V, indicating a molecular weight >71 kDa(Kilodaltons (high molecular weight species). Between 12-24 hours post-feeding (FIG. 3 (E), (G)), there appears to be an emergence of smaller molecular weight hyaluronic acid species in the molecular weight range between about 30 and about >80 kDa, and more particularly between 71-37.7 kDa (Kilo-daltons (peaks 1,2 and 3 in FIG. 1(G), representing 55.5, 47 and 38 kDa, respectively (Protein Standard). Two assays were used to measure HA in serum: (i) carbazole, and (ii) aggrecan assay.
F: Carbazole Assay for the Determination of Glucuronic Acid
For this assay, a linear response has been achieved with hyaluronic acid standards up to 200 μg./mL, (the range of linearity is expected to be extendible to even higher standard concentrations).
Place 3 mL of 0.025 M sodium tetraborate solution in glass tubes and cool thoroughly on ice prior to addition of samples and standards.
Carefully layer (so as to avoid mixing) 0.5 mL of sample or standard over the sodium tetraborate solution in the reaction tubes and place tubes back on ice until all tubes have been prepared.
Mix the contents of each tube thoroughly with a vortex mixer and return the tube to the ice, while mixing the others, to prevent excessive heating of sample.
Place reaction tubes in a 90° C. water bath for 10 minutes and then transfer to a tub of cool water for 5-10 minutes.
Add 100 μ.L of 0.125% carbazole solution to each tube and mix thoroughly with a vortex mixer.
Re-heat the reaction tubes in the 90° C. water bath for an additional 15 minutes. Transfer to a tub of cool water for 5-10 minutes.
Measure absorbance of samples and standards at 530 nm.
After completion of the reaction,transfter 200 μ.L of each sample and standard to individual wells of a 96 well microtest plate. Immediately measure the sample absorbance at 530 ηm (550 ηm, given the available filters with some instruments) using a microplate reader. Biotinylated Aggregcan, an HA binding protein, can be used to detect low levels of HA in serum by in ELISA assay that has been published and is known to persons skilled in the art. This assay is more sensitive than the carbazole assay and was used for conformation.

neutrophils = assay: MPO (myleoperoxidase) content, neutrophil accumulation at the site of restenosis, oral HA; assay type: in vivo, rat; settings: FIG. 8
Source text: With respect to neutrophil accumulation, reference is to be had to FIG. 8—MPO Content (oral) where MPO is Myleoperoxidase and MPO has been assayed by the methods known to persons skilled in the art. This assay for detecting myleoperoxidase (which is an enzyme) is a good test and thus a good measure for detecting neutrophils.

rat carotid artery = assay: Stenosis after balloon angioplasty injury of the rat carotid artery, oral HA; assay type: in vivo; settings: for N/I RATIO ± S.E.M. (NEOINTIMA /INTIMA RATIO WHERE N IS NEOINTIMA AND I IS INTIMA): rat carotid artery after balloon injury, mean of four animals
Source text: FIG. 6 consists of a series of photographs of the cross-sections through carotid arteries of rats showing the effects of different amounts of orally administered Hyaluronan in stenosis of the rat carotid arteries:
All vessels were injured with a fogherty balloon as described in the prior art (Forns et. al., 1994) Cross-sections of arteries of rats treated with HA, saline or left untreated are as shown:
These values represent the mean of, and standard error of the mean (S.E.M.) of, four animals. These experiments were repeated twice with similar results.
FIG. 7 illustrates the effects of oral administration of HA on Neointimal formation in rats after balloon angioplasty. Six groups of tests were conducted, each test in respect of 3 rats. Thus, the six test results shown in […] resulted from the use of 18 rats. […] This is consistent with the findings illustrated in FIGS. 6 and 8 and the discussion herein.

[3] = oral 30 mg/kg, 12-24 hours post-feeding, Protein Standard

With sodium hyaluronate [HA] the “time window of increased serum hyaluronan levels” value [1] was 4 to 12 h, the “serum/blood HA amount after oral compared with subcutaneous administration” value [2] was “similar” and the “serum/blood HA amount after oral compared with subcutaneous administration” value ([2]; listed as sodium hyaluronate) was “on the order of that seen for the subcutaneous administration of this compound at 30-100 mg/kg”. For the same substance, the “molecular weight of serum hyaluronic acid, peak 1” value [2, 3] was 55.5 kDa, the “molecular weight of serum hyaluronic acid, peak 2” value [2, 3] was 47 kDa and the “molecular weight of serum hyaluronic acid, peak 3” value [2, 3] was 38 kDa. For the same substance, the “molecular weight of the majority of serum hyaluronic acid” value ([2]; oral 30 mg/kg, 1 hour and 9 hours post-feeding, Protein Standard) was > 71 kDa, the “time course of HA in blood after oral administration” value ([2]; oral 30 mg/kg, FIG. 3) was “burst of HA in blood one hour after administration, a decrease for five hours followed by a steady increase over the next eighteen hours” and the “time after administration at which serum hyaluronan levels increase” value ([2]; oral 30 mg/kg, FIG. 4) was “about 1.25 hours”. The “first increase of serum hyaluronic acid after oral administration” value ([2]; single oral dose 30 mg/kg, 2% in sterile water) was “increased within the first hour”, the “serum hyaluronic acid after the first pulse” value ([2]; single oral dose 30 mg/kg, 3 and 6 hours post-feeding) was “sharp decrease to background levels in normal serum at 3 and 6 hours post-feeding” and the “second increase of serum hyaluronic acid” value ([2]; single oral dose 30 mg/kg, from 9 hours post-feeding) was “increase at 9 hours post-feeding of HA and this increase is sustained over the time period extending up to 24 hours”. The “neutrophil number (MPO content) at the site of restenosis” value (neutrophils) was “reduces the number of neutrophils”, the “N/I RATIO ± S.E.M. (NEOINTIMA /INTIMA RATIO WHERE N IS NEOINTIMA AND I IS INTIMA)” value (rat carotid artery; 1 mg/kg orally) was 2.6 ± 0.8 and the “N/I RATIO ± S.E.M. (NEOINTIMA /INTIMA RATIO WHERE N IS NEOINTIMA AND I IS INTIMA)” value (rat carotid artery; 3 mg/kg orally) was 1.7 ± 0.4. The “N/I RATIO ± S.E.M. (NEOINTIMA /INTIMA RATIO WHERE N IS NEOINTIMA AND I IS INTIMA)” value (rat carotid artery; 10 mg/kg orally) was 0.4 ± 0.03, the “N/I RATIO ± S.E.M. (NEOINTIMA /INTIMA RATIO WHERE N IS NEOINTIMA AND I IS INTIMA)” value (rat carotid artery; 30 mg/kg orally) was 0.99 ± 0.06 and the “N/I RATIO ± S.E.M. (NEOINTIMA /INTIMA RATIO WHERE N IS NEOINTIMA AND I IS INTIMA)” value (rat carotid artery; 100 mg/kg orally) was 1.1 ± 0.08. The “neointimal to total wall ratio, order of the dose groups” value (rat carotid artery; oral HA, rats after balloon angioplasty, 3 rats per group, FIG. 7) was “greater for administration of saline, followed by the administration of HA in amounts per kilogram of body weight of 1 mg, then 100 mg, 10 mg and 3 mg” and the “oral dose with optimal effects on smooth muscle cell proliferation” value (rat carotid artery; oral administration, rat, FIG. 6) was 3 to 10 mg/kg.
